From ChEMBL document CHEMBL5241119, “Hydroxypyrone derivatives in drug discovery: from chelation therapy to rational design of metalloenzyme inhibitors” (RSC Med Chem, 2022) come the findings set out here.

Each structure is given as a SMILES string. Some results are limits rather than exact numbers.

Experiment [1] has as its target Interstitial collagenase (Homo sapiens) (UniProt P03956). The experiment is described as follows: Inhibition of human MMP-1 at 100 uM relative to control.
For experiment [2], the target named is T1, Stromelysin-1 (Homo sapiens, UniProt P08254). Nature of the experiment: Inhibition of human MMP-3 at 100 uM relative to control.
Target sequence in this assay (P08254 100-477 limits assumed): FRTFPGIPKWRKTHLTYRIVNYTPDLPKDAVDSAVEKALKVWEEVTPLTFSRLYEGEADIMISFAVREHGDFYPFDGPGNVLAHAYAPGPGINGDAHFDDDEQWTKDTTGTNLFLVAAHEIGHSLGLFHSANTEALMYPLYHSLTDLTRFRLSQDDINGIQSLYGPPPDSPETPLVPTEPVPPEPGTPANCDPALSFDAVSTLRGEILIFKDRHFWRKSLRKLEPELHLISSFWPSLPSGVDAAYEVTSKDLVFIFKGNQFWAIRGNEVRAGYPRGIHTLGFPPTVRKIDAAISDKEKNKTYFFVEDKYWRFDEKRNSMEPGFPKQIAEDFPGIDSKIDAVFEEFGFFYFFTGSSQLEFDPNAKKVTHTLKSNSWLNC
In another experiment the target is T2, Interstitial collagenase (Homo sapiens, UniProt P03956).
T2 sequence (P03956 whole entry): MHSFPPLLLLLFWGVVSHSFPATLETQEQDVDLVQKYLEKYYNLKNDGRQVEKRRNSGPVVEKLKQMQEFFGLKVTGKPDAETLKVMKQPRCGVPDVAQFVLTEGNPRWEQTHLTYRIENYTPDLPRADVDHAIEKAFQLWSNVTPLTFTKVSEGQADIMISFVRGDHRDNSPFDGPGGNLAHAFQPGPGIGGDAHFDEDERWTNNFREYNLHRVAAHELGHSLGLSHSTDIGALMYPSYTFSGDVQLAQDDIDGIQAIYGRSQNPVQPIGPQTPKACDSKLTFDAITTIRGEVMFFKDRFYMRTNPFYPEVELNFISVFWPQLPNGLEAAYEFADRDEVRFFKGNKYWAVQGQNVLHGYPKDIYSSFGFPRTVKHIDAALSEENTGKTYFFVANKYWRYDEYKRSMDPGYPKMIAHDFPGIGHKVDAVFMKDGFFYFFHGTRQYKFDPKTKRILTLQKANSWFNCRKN
The experiment is described as follows: Inhibition of human MMP-1.

The target of the next experiment is T3, Matrilysin (Homo sapiens, UniProt P09237).
T3 sequence (P09237 whole entry): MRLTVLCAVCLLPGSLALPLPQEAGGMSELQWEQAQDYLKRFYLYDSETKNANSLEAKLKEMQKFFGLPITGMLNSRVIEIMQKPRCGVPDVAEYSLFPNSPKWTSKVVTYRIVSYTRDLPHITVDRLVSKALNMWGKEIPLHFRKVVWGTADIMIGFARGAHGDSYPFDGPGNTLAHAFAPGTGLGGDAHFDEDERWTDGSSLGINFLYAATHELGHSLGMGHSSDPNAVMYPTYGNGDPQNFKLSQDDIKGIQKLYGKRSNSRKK
Nature of the experiment: Inhibition of human MMP-7.

Experiment [3] concerns the target T4, Matrix metalloproteinase-9 (Homo sapiens, UniProt P14780). Nature of the experiment: Inhibition of human MMP-9.
Another experiment has as its target Collagenase 3 (Homo sapiens, UniProt P45452). The experiment is described as follows: Inhibition of human MMP-13.
Experiment [4] concerns the target T5, Neutrophil collagenase (Homo sapiens, UniProt P22894). The experiment is described as follows: Inhibition of human MMP-8.
Target sequence in this assay (P22894 whole entry): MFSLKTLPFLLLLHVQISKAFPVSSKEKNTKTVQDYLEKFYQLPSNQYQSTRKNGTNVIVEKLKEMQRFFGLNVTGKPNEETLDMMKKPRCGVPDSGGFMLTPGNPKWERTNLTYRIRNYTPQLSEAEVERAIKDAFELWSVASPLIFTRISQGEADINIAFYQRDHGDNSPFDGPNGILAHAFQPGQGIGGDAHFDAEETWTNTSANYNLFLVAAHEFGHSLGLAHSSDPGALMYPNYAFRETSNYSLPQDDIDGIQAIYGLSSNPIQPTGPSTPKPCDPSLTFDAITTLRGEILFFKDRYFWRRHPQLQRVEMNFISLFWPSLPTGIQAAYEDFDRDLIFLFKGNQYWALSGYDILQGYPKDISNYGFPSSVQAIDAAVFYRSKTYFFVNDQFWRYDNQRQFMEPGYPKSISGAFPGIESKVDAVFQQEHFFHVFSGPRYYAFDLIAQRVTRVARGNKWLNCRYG
For experiment [5], the target named is T4, Matrix metalloproteinase-9. The experiment is described as follows: Inhibition of human MMP-9 at 100 uM relative to control.
Experiment [6] concerns the target T6, Macrophage metalloelastase (Homo sapiens, UniProt P39900). The experiment is described as follows: Inhibition of human MMP-12 relative to control. The settings on record: concentration not given here. Details: concentration or dose not given beside the values.
Target sequence in this assay (P39900 106-470 limits assumed): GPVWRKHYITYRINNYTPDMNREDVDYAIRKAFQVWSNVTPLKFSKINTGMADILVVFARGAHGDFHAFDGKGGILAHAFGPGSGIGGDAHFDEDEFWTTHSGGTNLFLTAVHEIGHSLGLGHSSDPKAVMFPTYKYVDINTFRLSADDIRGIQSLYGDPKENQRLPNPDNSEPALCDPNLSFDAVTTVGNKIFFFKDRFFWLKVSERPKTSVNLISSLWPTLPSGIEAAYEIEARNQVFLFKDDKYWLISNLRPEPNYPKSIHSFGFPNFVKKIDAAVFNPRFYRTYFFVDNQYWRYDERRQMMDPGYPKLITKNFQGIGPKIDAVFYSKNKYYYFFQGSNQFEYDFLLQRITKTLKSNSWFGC
Experiment [7] deals with Polymerase acidic protein (Influenza A virus (A/Puerto Rico/8/1934(H1N1))) (UniProt P03433). The experiment is described as follows: Inhibition of Influenza A virus N-terminal domain of PA endonuclease relative to control. The following applies: concentration not given here.
Experiment [8] is described as follows: Inhibition of NDM-1 (unknown origin) relative to control. Details: concentration or dose not given beside the values. The settings on record: Bacteria; concentration not given here.
Experiment [9] addresses T5, Neutrophil collagenase. The experiment is described as follows: Inhibition of beta-glucosidase activated MMP-8 (unknown origin) relative to control. The settings on record: concentration not given here.
Experiment [10] concerns the target T4, Matrix metalloproteinase-9. Nature of the experiment: Inhibition of beta-glucosidase activated MMP-9 (unknown origin) relative to control. The settings on record: concentration not given here.
Experiment [11] deals with 72 kDa type IV collagenase (Homo sapiens, UniProt P08253). The experiment is described as follows: Inhibition of MMP-2 (unknown origin).
Chain of 72 kDa type IV collagenase (P08253 whole entry): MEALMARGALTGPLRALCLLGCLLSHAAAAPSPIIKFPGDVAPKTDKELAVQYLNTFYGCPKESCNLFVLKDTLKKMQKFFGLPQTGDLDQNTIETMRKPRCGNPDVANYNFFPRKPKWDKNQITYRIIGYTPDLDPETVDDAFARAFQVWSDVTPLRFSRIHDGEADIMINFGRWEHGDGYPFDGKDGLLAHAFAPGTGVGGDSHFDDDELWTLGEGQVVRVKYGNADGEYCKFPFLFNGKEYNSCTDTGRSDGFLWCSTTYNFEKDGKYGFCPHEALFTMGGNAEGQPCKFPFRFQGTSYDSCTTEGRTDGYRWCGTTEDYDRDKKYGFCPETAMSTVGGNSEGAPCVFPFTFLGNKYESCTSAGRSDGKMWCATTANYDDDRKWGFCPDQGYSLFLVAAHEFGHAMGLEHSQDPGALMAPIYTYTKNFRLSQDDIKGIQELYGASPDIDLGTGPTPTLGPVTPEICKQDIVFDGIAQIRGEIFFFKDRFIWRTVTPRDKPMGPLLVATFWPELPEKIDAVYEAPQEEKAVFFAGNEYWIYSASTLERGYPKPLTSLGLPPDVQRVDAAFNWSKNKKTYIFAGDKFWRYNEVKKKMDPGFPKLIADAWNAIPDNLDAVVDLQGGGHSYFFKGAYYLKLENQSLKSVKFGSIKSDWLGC
Experiment [12] concerns the target T1, Stromelysin-1. Nature of the experiment: Inhibition of MMP-3 (unknown origin).
Target sequence in this assay (P08254 whole entry): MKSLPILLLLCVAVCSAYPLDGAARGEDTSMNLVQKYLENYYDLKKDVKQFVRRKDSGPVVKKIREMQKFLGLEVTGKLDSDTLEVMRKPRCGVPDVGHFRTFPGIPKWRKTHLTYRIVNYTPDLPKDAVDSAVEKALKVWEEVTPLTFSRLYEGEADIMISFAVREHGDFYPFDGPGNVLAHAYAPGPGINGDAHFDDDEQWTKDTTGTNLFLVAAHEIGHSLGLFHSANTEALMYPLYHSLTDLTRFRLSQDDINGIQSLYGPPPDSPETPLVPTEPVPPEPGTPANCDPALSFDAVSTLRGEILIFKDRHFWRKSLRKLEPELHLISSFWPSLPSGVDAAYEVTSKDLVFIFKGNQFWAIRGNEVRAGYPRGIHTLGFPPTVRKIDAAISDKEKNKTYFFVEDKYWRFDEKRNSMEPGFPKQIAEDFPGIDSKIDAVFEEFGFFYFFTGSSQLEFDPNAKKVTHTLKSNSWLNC
The target in experiment [13] is T4, Matrix metalloproteinase-9. Nature of the experiment: Inhibition of MMP-9 (unknown origin).
Another experiment has as its target Lethal factor (Bacillus anthracis, UniProt P15917). Nature of the experiment: Inhibition of anthrax lethal factor.
The target of experiment [14] is T6, Macrophage metalloelastase. Nature of the experiment: Inhibition of human MMP-12.
Target sequence in this assay (P39900 whole entry, the tested form may be a part): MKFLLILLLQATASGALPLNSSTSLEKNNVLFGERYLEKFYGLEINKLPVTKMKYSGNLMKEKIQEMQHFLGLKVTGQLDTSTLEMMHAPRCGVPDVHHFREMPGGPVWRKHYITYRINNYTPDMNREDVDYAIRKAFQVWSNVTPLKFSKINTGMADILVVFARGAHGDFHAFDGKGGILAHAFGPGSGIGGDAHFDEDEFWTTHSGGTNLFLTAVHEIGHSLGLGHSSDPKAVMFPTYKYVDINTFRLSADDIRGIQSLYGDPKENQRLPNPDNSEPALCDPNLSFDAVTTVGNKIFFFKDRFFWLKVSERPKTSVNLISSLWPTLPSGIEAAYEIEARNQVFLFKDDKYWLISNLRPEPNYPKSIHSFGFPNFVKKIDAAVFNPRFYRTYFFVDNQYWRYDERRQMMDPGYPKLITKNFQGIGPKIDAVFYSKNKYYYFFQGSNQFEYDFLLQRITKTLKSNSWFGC
Experiment [15] concerns the target T7, Mushroom tyrosinase (Agaricus bisporus, UniProt O42713+Q00024+C7FF04+C7FF05). The experiment is described as follows: Inhibition of mushroom monophenolase.
The target in experiment [16] is T7, Mushroom tyrosinase. The experiment is described as follows: Inhibition of mushroom diphenolase.
A further experiment addresses Acetylcholinesterase (Electrophorus electricus, UniProt O42275). The experiment is described as follows: Inhibition of Electrophorus electricus AChE.
The target in experiment [17] is Mushroom tyrosinase (Agaricus bisporus) (UniProt O42713+Q00024+C7FF04+C7FF05). The experiment is described as follows: Inhibition of mushroom monophenolase activity using L-DOPA as substrate preincubated with substrate followed by compound addition by Lineweaver-burk reciprocal plot analysis. The settings on record: concentration not given here.
The subject of another experiment is Glycine max. Nature of the experiment: Inhibition of soybean 5-LOX relative to control.
The nature of experiment [18]: Antioxidant activity assessed as DPPH radical scavenging activity. The experiment is classed as functional. On the technique in general: DPPH is a stable violet radical that fades when it is reduced.

T4 sequence (P14780 whole entry): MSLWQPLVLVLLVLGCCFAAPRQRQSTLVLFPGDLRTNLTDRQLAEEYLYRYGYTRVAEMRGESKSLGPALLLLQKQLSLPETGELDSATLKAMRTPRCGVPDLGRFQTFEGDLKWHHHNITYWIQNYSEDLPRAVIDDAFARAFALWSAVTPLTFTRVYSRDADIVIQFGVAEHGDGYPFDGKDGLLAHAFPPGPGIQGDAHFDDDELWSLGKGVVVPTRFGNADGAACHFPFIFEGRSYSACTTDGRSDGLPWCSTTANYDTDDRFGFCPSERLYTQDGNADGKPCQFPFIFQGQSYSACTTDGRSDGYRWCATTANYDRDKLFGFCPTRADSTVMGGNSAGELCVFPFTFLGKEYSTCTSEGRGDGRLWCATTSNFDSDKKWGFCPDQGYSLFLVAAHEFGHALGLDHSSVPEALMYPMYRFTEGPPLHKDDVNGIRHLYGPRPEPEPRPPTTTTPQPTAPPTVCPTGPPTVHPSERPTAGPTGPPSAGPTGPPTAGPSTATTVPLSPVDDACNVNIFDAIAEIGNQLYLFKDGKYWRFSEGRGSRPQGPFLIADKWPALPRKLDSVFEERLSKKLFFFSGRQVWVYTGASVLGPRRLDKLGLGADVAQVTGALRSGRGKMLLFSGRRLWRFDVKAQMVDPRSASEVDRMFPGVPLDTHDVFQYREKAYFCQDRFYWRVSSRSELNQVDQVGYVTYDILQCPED
Chain of Acetylcholinesterase (O42275 whole entry): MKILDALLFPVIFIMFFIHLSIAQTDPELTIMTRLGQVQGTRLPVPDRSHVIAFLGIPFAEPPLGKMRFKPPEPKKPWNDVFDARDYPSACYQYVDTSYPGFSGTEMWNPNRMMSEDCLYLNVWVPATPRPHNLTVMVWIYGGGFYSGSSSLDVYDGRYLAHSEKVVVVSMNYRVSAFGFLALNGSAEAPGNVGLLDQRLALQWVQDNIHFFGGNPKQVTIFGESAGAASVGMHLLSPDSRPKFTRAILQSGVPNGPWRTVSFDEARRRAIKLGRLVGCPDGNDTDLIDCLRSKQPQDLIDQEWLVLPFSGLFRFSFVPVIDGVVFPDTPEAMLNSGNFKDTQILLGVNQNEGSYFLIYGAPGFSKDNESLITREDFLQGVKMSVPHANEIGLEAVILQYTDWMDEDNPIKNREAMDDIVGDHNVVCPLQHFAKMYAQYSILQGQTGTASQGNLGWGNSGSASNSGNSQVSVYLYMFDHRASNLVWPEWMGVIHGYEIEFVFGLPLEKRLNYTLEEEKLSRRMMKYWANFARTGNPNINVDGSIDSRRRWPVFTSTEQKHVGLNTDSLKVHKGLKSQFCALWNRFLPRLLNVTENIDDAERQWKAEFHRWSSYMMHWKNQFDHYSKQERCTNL
Chain of Lethal factor (P15917 whole entry): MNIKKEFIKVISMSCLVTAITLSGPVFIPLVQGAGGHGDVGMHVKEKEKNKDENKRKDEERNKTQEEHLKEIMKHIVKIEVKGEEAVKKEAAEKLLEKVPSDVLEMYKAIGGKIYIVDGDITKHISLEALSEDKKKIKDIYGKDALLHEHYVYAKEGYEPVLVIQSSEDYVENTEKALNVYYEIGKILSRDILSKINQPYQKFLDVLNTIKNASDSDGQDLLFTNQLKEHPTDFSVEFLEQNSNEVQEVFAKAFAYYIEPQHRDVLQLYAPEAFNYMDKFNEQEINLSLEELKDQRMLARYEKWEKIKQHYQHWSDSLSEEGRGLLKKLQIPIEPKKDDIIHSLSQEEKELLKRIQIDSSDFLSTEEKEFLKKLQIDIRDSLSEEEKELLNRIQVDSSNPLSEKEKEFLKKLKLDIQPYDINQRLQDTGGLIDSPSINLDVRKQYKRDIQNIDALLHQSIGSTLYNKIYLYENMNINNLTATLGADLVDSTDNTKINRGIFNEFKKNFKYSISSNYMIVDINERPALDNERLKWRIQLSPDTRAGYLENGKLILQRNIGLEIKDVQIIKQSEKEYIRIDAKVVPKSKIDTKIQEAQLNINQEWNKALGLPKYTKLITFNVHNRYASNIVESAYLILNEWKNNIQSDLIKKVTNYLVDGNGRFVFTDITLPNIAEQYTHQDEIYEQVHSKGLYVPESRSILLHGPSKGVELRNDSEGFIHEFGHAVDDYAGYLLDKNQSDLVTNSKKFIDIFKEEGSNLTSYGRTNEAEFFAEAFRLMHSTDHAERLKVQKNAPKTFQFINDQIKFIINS

Consider `Cc1occ(O)c(=O)c1C(=O)NCc1ccc(-c2ccccc2)cc1`, for which the inhibition (in experiment [1]; at Stromelysin-1 [2]) was 21% in each case.
Take `Cc1cc(=O)c(O)c(C(=O)NCc2ccc(-c3ccccc3)cc2)n1C`: the IC50 (usually the concentration needed to halve the response being measured) against Interstitial collagenase amounted to 25 µM; on Matrilysin, 25 µM; in experiment [3], 25 µM; against Collagenase 3 it was 4 µM; against Neutrophil collagenase [4] it was 1.2 µM.
Take `Cc1occ(O)c(=S)c1C(=O)NCc1ccc(-c2ccccc2)cc1`: the inhibition (usually the relative decrease from the control value, in per cent) in experiment [5] was found to be 54%.
In the case of `Oc1coc2ccccc2c1=S`, the inhibition in experiment [6] was 93%; in experiment [7], over 90%.
In [7], `On1cc2ccccc2cc1=S` had an inhibition of over 90%.
Regarding `CS(=O)(=O)Cc1cccc(=S)n1O`, the inhibition was 93% in experiment [6], 90% in [8] and over 90% in experiment [7].
For `Cc1occc(=O)c1O[C@@H]1O[C@H](CO)[C@@H](O)[C@H](O)[C@H]1O`, the inhibition against Neutrophil collagenase [9] is 33%; in experiment [10] it was 73%.
With `Cc1c(O)c(=S)ccn1Cc1ccc(-c2ccccc2)cc1`, the IC50 was 1 µM in experiment [11], 4 µM on Stromelysin-1 [12], 2 µM in experiment [13] and 3 µM against Lethal factor.
Consider `S=c1cc[nH]c2[nH]cnc12`, for which, in [8], the inhibition amounted to 90%.
As for `Cc1cc(=O)c(O)c(C(=O)NCc2ccc(-c3ccccc3)cc2)o1`, the IC50 against Interstitial collagenase came to 25 µM; on Matrilysin, 25 µM; in experiment [3] it was 25 µM; against Collagenase 3 it was 4 µM; against Neutrophil collagenase [4], 0.018 µM; in [14], 0.018 µM.
With `CCCCCCCCn1cc(O)c(=O)cc1COC(=O)[C@H](N)Cc1ccccc1`, the IC50 against Mushroom tyrosinase [15] turned out to be 12.6 µM; against Mushroom tyrosinase [16] it was 4.01 µM.
In the same order, the values of `Cn1cc(O)c(=O)cc1/C=C/C(=O)c1ccc(F)cc1` are 3.07 µM and 17.05 µM.
In the same order, the values of `COc1ccc(C(=O)/C=C/c2cc(=O)c(O)c[nH]2)cc1OC` are 2.75 µM and 19.3 µM.
The compound `Cc1c(O)c(=S)ccn1C` registered an inhibition in experiment [8] of 90%.
At Acetylcholinesterase, `Cc1c(OCc2ccccc2)c(=O)ccn1-c1ccc(CC(=O)Nc2ccc(Cc3nc4ccccc4s3)cc2)cc1` gave an IC50 of 14.7 µM.
As for `Cc1c(O)c(=O)ccn1C`, the values for the inhibition (in experiment [17]; in the experiment on Glycine max) were 2% and 70%, respectively.
In the experiment with Glycine max, `CCCCCCCCn1ccc(=O)c(O)c1C` returned an inhibition of 40%.
Turning to `Cc1c(O)c(=O)ccn1CCCC(=O)N1CCCC1c1nc2ccccc2s1` (centres undefined), in experiment [18], the EC50 – broadly, the concentration needed to bring the measured effect to its halfway point – worked out at 247 µM.
